Measurements from paper PMC10597491 (PLOS ONE, 2023).
Bridge positions count the residues as written; N and C are the ends. Ends that are not written are not given here.

Experiments:
Format in all cases: cell-based
human naive CD8+ T-cells = assay: pSTAT5 ELISA in isolated naive CD8+ T-cells; conditions: for EC50: rested naive CD8+ T-cells, 15 min exposure, pSTAT5 ELISA
Procedure: (§1) We first assessed induction kinetics over a time course of compound exposure. Saturating concentrations of each of the compounds, previously determined to elicit maximum response of pSTAT5 signaling, were applied to the cells and pSTAT5 levels monitored for up to 2 hours. The resulting time-response profiles served to compare the kinetics of signal induction for the different compounds, and to determine Tmax for correct time of exposure in subsequent dose response determinations for each compound. In these studies, IL-7-induced pSTAT5 accumulation rose rapidly to a maximum by 15 to 30 minutes, then declined slowly for the remainder of the time course.
(§2) Naive CD4+ and CD8+ T-cells, were separately isolated by negative selection from PBMCs, and rested overnight prior to compound exposure.
(§3) For preparation of lymphocyte subsets, naïve CD4+ T-cells were isolated via two-stage negative selection with EasySep™ Human Naïve CD4+ T-Cell Isolation Kit II (Stemcell Technologies Cat# 17555); and CD8+ T-cells were isolated by negative selection from PBMCs with Stem Cell Technology Easy Sep CD8+ kit, or obtained freshly prepared from Stanford Blood Center. Rested naïve CD4+ T-cells or CD8+ T-cells were prepared by overnight incubation at 37°C, 5% CO2 in CTS™ OpTmizer™ T-Cell Expansion SFM (ThermoFisher Scientific Cat# A1048501).
(§4) Cells were deprived of growth factors by overnight incubation at 5×10^5 cells/mL in starvation medium (RPMI 1640 + 4.5 g/L glucose + 0.2% FBS + 2 mM L-glutamine + 1 mM NaPyr + 10 mM HEPES + 0.5x penicillin-streptomycin with no cytokine supplement) in T75 flasks. For assays, cells were plated in 96-well V-bottom plates at 2×10^5 cells/well. […] Following incubation, cell extracts were prepared by adding a mixture of 10x Cell Lysis Buffer (Cell Signaling Technology Cat# 9803) and 100x HALT Phosphatase and Protease Inhibitor Cocktail (Thermo Fisher Cat# 78442) directly to the wells. The plates were agitated at 25°C for 5 min to prepare cell extracts for immediate use or to be stored at -80°C until assay. […]

human naive CD4+ T-cells = assay: pSTAT5 ELISA in isolated naive CD4+ T-cells; conditions: for EC50: rested naive CD4+ T-cells, 15 min exposure, pSTAT5 ELISA
Procedure: as §1, §2, §3, §4

[1] = tested on: rested human CD8+ T-cells; assay: IL-7Rα (CD127) internalization assay
Procedure: In previous studies, the decline of IL-7Rα on the surface of IL-7-treated CD8+ cells was reported to proceed with approximately linear kinetics, reaching ~80% disappearance of receptor over 6 hours at 37°C [49]. […] Surface IL-7R was pre-loaded with saturating concentrations of the agonists on ice and shifted to 37°C to allow internalization, then shifted back to ice to stop internalization. […] A parallel assay with all incubations held on ice for the duration of the time course was also run.
Fig 8 Test compounds induce decrease in cell surface IL-7Rα. […] Following timed incubations, the samples were stained, fixed, and analyzed by flow cytometry; and data was collected as median fluorescence intensity (MFI), as detailed in Methods. […] The primary flow data (MFI) is shown in S3 Fig.
CD8+ cells isolated by negative selection from PBMCs with Stem Cell Technology Easy Sep CD8+ kit, or obtained freshly prepared from Stanford Blood Center, were rested overnight in RPMI 1640 containing Pen/Strep, L-Glutamine and 20% FBS; then resuspended to 7.0 x10^6 cells/mL. […] To determine levels of cell surface IL-7Rα, analysis was performed by flow cytometry to determine median fluorescence intensity (MFI) of cells at each condition. […]

EC50 (human naive CD8+ T-cells) [pM]	EC50 (human naive CD4+ T-cells) [pM]	Substance	agonist efficacy, CD8+ (human naive CD8+ T-cells; dose response at 15 min)	agonist efficacy, CD4+ (human naive CD4+ T-cells; dose response at 15 min)	rate of surface decline of IL-7Rα ([1]; 1 μM, 37°C)	loss of IL-7Rα surface density ([1]; 6 hours at 37°C, 10 nM IL-7) [%]
350	1300	Ac-GWGIPWCTLDPGSLQCAWLGKHGGGGSGGVVCQDWEGVELCWQGG (disulfide 7-16, 32-41) [MDK1472]	full agonists	full agonists	tracked very closely with that induced by IL-7	–
2.8	2.5	IL-7: human IL-7 cytokine (Peprotech)	–	–	–	60
